Experimental data from PubChem BioAssay AID1963972 (Molecular Pharmacology Branch, DTP, NCI, 2024).

Test system: 945468-187-T-J2-PDC spheroids viability
Test: Anticancer human tumor 945468-187-T-J2-PDC patient-derived rectal carcinoma cell line growth inhibition [PI3K]
Conditions: spheroids with HUVEC and MSC; for IC50: curve of first compound; for viability, T/C: stronger effect = lower value
Procedure, shortened: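 Multi-cell spheroids combine tumor cells with HUVEC and human MSCs, treated with targeted agents alone or with inavolisib, alpelisib, duvelisib or copanlisib. Concentrations fall in half-log steps from at or near clinical Cmax, or from 10 microM where Cmax is unknown; viability read-out.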
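Also: spheroids exposed to compounds for seven days before reading.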

CC(C)n1nc(-c2ccc3oc(N)nc3c2)c2c(N)ncnc21 + Cc1nc(NC(=O)N2CCCC2C(N)=O)sc1-c1ccnc(C(C)(C)C(F)(F)F)c1
IC50 (second compound 0.0316 µM): > 100 nM | IC50 (second compound 0.1 µM): > 100 nM | IC50 (second compound 0.316 µM): > 100 nM | IC50 (second compound 1 µM): > 100 nM | IC50 (second compound 3.16 µM): 58.3 nM | IC50 (second compound 10 µM): 21.3 nM | viability, T/C (second compound 0.0316 µM, first compound 0.000316 µM): 91.4% | viability, T/C (second compound 0.0316 µM, first compound 0.001 µM): 109% | viability, T/C (second compound 0.0316 µM, first compound 0.00316 µM): 69.1% | viability, T/C (second compound 0.0316 µM, first compound 0.01 µM): 83.5% | viability, T/C (second compound 0.0316 µM, first compound 0.0316 µM): 77.9% | viability, T/C (second compound 0.0316 µM, first compound 0.1 µM): 71.2% | viability, T/C (second compound 0.1 µM, first compound 0.000316 µM): 103% | viability, T/C (second compound 0.1 µM, first compound 0.001 µM): 77.7% | viability, T/C (second compound 0.1 µM, first compound 0.00316 µM): 88.6% | viability, T/C (second compound 0.1 µM, first compound 0.01 µM): 81.4% | viability, T/C (second compound 0.1 µM, first compound 0.0316 µM): 84.9% | viability, T/C (second compound 0.1 µM, first compound 0.1 µM): 55.6% | viability, T/C (second compound 0.316 µM, first compound 0.000316 µM): 65.9% | viability, T/C (second compound 0.316 µM, first compound 0.001 µM): 68.2% | viability, T/C (second compound 0.316 µM, first compound 0.00316 µM): 80.4% | viability, T/C (second compound 0.316 µM, first compound 0.01 µM): 81.5% | viability, T/C (second compound 0.316 µM, first compound 0.0316 µM): 75.3% | viability, T/C (second compound 0.316 µM, first compound 0.1 µM): 68.8% | viability, T/C (second compound 1 µM, first compound 0.000316 µM): 70.3% | viability, T/C (second compound 1 µM, first compound 0.001 µM): 80.6% | viability, T/C (second compound 1 µM, first compound 0.00316 µM): 73.2% | viability, T/C (second compound 1 µM, first compound 0.01 µM): 91.5% | viability, T/C (second compound 1 µM, first compound 0.0316 µM): 75.3% | viability, T/C (second compound 1 µM, first compound 0.1 µM): 57.9% | viability, T/C (second compound 3.16 µM, first compound 0.000316 µM): 77% | viability, T/C (second compound 3.16 µM, first compound 0.001 µM): 68.9% | viability, T/C (second compound 3.16 µM, first compound 0.00316 µM): 75.2% | viability, T/C (second compound 3.16 µM, first compound 0.01 µM): 78.1% | viability, T/C (second compound 3.16 µM, first compound 0.0316 µM): 64% | viability, T/C (second compound 3.16 µM, first compound 0.1 µM): 37.6% | viability, T/C (second compound 10 µM, first compound 0.000316 µM): 77.5% | viability, T/C (second compound 10 µM, first compound 0.001 µM): 62.4% | viability, T/C (second compound 10 µM, first compound 0.00316 µM): 66.9% | viability, T/C (second compound 10 µM, first compound 0.01 µM): 58.7% | viability, T/C (second compound 10 µM, first compound 0.0316 µM): 46.5% | viability, T/C (second compound 10 µM, first compound 0.1 µM): 27.2%
